Converted amounts (≈) assume the structure as drawn. “Also recorded” adds a separate entry of the source.
Experiments:
[1] = test system: C. neoformans var grubii, KN99; assay: Inhibition of C. neoformans growth, limiting dilution assay (MIC); assay type: cell-based; settings: for MIC80: KN99α, minimal concentration inhibiting 80% of growth relative to vehicle; for activity against C. neoformans (in words): MIC assay
Procedure: Strains and media. All inhibition assays were performed with C. neoformans var grubii, KN99 (serotype A, MATα; kindly provided by Jennifer Lodge). Two clinical strains of C. neoformans var grubii, serotype A, were kindly provided by Tamara Doering and Andre Spec. […] Each assay was done in triplicate and all values are the average of two or more independent assays. The data are presented as the average cell density as a percent of DMSO-only treated cells. […] However, these conditions are unlike conditions encountered by C. neoformans in mammalian infections, where nutrients are limited, and the pH and temperature are higher than in YPD media. The cryptococcal stress response to low glucose and high pH and temperature may alter its susceptibility to the inhibitors. It is also possible that the enzymes targeted by the inhibitors may render the cell temperature sensitive when inhibited. To better mimic growth in mammals, growth was tested without shaking in nutrient-limited media at 35° C. […] However, as the nutrient-limited media and higher temperature is more similar to mammalian cell growth conditions, these conditions were used for all further assays. […] All values were measured at least two times in independent experiments and the average MIC is reported.

[2] = Cytotoxicity in hepatoma cells (MTS); settings: human, HepDES19 cells
Procedure: (§1) HepDES19 cells (1.0×10^4 cells per well) were seeded in 96-well plates and incubated in DMEM with 10% fetal bovine serum (FBS) plus 1% penicillin and streptomycin, 1% nonessential amino acids, and 1% glutamine. The compounds were diluted in the medium at concentrations ranging from 0.78 to 100 μM plus 1% DMSO and added to the cells 48 hours after plating, with each concentration tested in triplicate. Cells were incubated with the compound for 72 hours and cytotoxicity was measured using a mitochondrial metabolic assay with MTS (Promega). The data were transformed to log[inhibitor] and fit to a 4-variable slope curve using GraphPad Prism (v6, www.graphpad.com).
(§2) Three days later, the MTS reagent was added for 90 minutes prior to terminating the incubation period and reading the OD480.

[3] = test system: HepDES19 cells; assay: Cytotoxicity in hepatoma cells (MTS); settings: 72 hours, MTS
Procedure: as §1, §2

[4] = test system: Wild-type KN99α; assay: Screening of 1-Hydroxy-1,8-naphthyridin-2(1H)-one (HNO) compounds for growth inhibition; assay type: cell-based, C. neoformans; settings: Cryptococcus neoformans; growth inhibited >80%
Procedure: FIG. 1. Results from screening 8 napthyridinone derivatives. Wild-type KN99α at a starting density of 0.0005 was treated with the compounds at 4 μM, 15 μM, and 60 μM in nutrient-limiting media (YNB, pH 7)+1% DMSO at 35° C. for 48 hours. Bars represent the average cell density of at least three replicates as percent of untreated cells.
Eight compounds in the 1-Hydroxy-1,8-naphthyridin-2(1H)-one (HNO) chemical family were also tested. Three compounds, #149, #153 and #154, inhibited growth of C. neoformans >80% with MICs of ˜10 μM, ˜4 μM and ˜20 μM respectively.

[5] = Cryptococcus neoformans, YNB-02+1% DMSO, 35° C., 48 hours
[6] = CC50, HepDES19 cells, 72 hours, MTS
[7] = YNB-02+1% DMSO, 35° C., 48 hours
[8] = Cryptococcus neoformans, Table 3, similar methods to Table 2
[9] = CC50, Table 3, similar methods to Table 2

CC(C)c1ccc(O)c(=O)cc1 [Compound 48, γ-thujaplicin]
MIC80 [1, 5]: 8 µM (≈ 1.31 µg/mL)
CC50 at 72 h [2, 6]: 45 µM

CC(C)=CCc1ccc(=O)c(O)cc1C(C)C [Compound 49, Nootkatin]
MIC80 [1, 5]: 18 µM (≈ 4.18 µg/mL)
CC50 at 72 h [2, 6]: 18.5 µM

O=Nc1ccc(O)c(=O)cc1 [Compound 50, 5-nitrosotropolone]
MIC80 [1, 7]: 24 µM (≈ 3.63 µg/mL)
CC50 [3]: 17.5 µM

O=C(Oc1cccccc1=O)c1ccc([N+](=O)[O-])cc1 [Compound 51, tropolone p-nitrobenzoate]
MIC80 [1, 5]: 24 µM (≈ 6.51 µg/mL)
CC50 at 72 h [2, 6]: > 100 µM

O=C(Nc1ccc(O)c(=O)cc1)c1ccccc1 [Compound 52]
MIC80 [1, 5]: 50 µM (≈ 12.1 µg/mL)
CC50 at 72 h [2, 6]: > 100 µM

O=c1cccccc1O [Compound 53, Tropolone]
MIC80 [1, 5]: 24 µM (≈ 2.93 µg/mL)
MIC [1, 5]: 24 µM (≈ 2.93 µg/mL)
CC50 at 72 h [2, 6]: 100 µM

CC(=O)NC(CCc1ccc(Cl)c(Cl)c1)c1cccc(O)c(=O)c1 (stereo not shown) [Compound 55]
MIC80 [1, 5]: 6 µM (≈ 2.2 µg/mL)
CC50 at 72 h [2, 6]: 4.3 µM
CC50 at 72 h ([2]; CC50, HepDES19, MTS): 4 µM

C=C(C)C1CCc2c(c(C)cc(O)c(=O)c2O)C1 (stereo not shown) [Compound 56, Manicol]
MIC80 [1, 5]: 50 µM (≈ 12.3 µg/mL)
CC50 at 72 h [2, 6]: 27 µM

O=c1cccccc1Cl [Compound 57, 2-chlorotropone]
MIC80 [1, 7]: 50 µM (≈ 7.03 µg/mL)

Cc1ccc(C(=O)Nc2cccccc2=O)cc1 [Compound 60]
MIC80 [1, 5]: 50 µM (≈ 12 µg/mL)
CC50 at 72 h [2, 6]: > 100 µM

Cc1ccc(S(=O)(=O)Oc2cccccc2=O)cc1 [Compound 61]
MIC80 [1, 5]: 41 µM (≈ 11.3 µg/mL)
CC50 at 72 h [2, 6]: 30.5 µM
CC50 at 72 h ([2]; CC50, HepDES19, MTS): 30.5 µM

O=C(Oc1cccccc1=O)c1ccc(Cl)cc1 [Compound 63]
MIC80 [1, 5]: 17 µM (≈ 4.43 µg/mL)
CC50 at 72 h [2, 6]: 100 µM

COC(=O)c1c(C)cc(O)c(=O)c(O)c1C(=O)OC [Compound 106]
MIC80 [1, 5]: 41 µM (≈ 11 µg/mL)
CC50 at 72 h [2, 6]: 24.5 µM

COC(=O)c1c(CCl)cc(O)c(=O)c(O)c1C(=O)OC [Compound 107]
MIC80 [1, 5]: 50 µM (≈ 15.1 µg/mL)
CC50 at 72 h [2, 6]: 85.5 µM

COCc1cc(O)c(=O)c(O)c(C(=O)OC)c1C(=O)OC [Compound 108]
MIC80 [1, 5]: 50 µM (≈ 14.9 µg/mL)
CC50 at 72 h [2, 6]: 90.5 µM

CC(=O)c1cc(O)c(=O)c(O)cc1C [Compound 110]
MIC80 [1, 5]: 50 µM (≈ 9.71 µg/mL)
MIC [1, 5]: ≥ 50 µM
CC50 at 72 h [2, 6]: 19 µM

Cc1cc(O)c(=O)c(O)cc1C(=O)c1ccccc1 [Compound 111]
MIC80 [1, 5]: 36 µM (≈ 9.23 µg/mL)
CC50 at 72 h [2, 6]: 26.3 µM

Cc1cc(O)c(=O)c(O)cc1-c1ccc([N+](=O)[O-])cc1 [Compound 112]
MIC80 [1, 5]: 49 µM (≈ 13.4 µg/mL)
CC50 at 72 h [2, 6]: 74 µM

Cc1cc(O)c(=O)c(O)cc1-c1ccccc1 [Compound 113]
MIC80 [1, 5]: 24 µM (≈ 5.48 µg/mL)
CC50 at 72 h [2, 6]: 37.5 µM

Cc1cc(O)c(=O)c(O)cc1-c1ccc(Br)cc1 [Compound 114]
MIC80 [1, 5]: 11 µM (≈ 3.38 µg/mL)
CC50 at 72 h [2, 6]: 18.6 µM

Cc1cc(O)c(=O)c(O)cc1C(=O)c1ccc(-c2ccccc2)cc1 [Compound 118]
MIC80 [1, 5]: 18 µM (≈ 5.98 µg/mL)
CC50 at 72 h [2, 6]: 17.5 µM

Cc1cc(O)c(=O)c(O)cc1C(=O)C1CCCCC1 [Compound 120]
MIC80 [1, 5]: 12 µM (≈ 3.15 µg/mL)
CC50 at 72 h [2, 6]: 21.5 µM

Cc1cc(O)c(=O)c(O)cc1C(=O)C(C)C [Compound 143]
MIC80 [1, 5]: 50 µM (≈ 11.1 µg/mL)
MIC [1, 5]: ≥ 50 µM
CC50 at 72 h [2, 6]: > 100 µM

Cc1cc(O)c(=O)c(O)cc1-c1ccc(Cl)cc1 [Compound 144]
MIC80 [1, 5]: 50 µM (≈ 13.1 µg/mL)

Cc1cc(O)c(=O)c(O)cc1-c1ccc(C(F)(F)F)cc1 [Compound 145]
MIC80 [1, 5]: 15 µM (≈ 4.44 µg/mL)
CC50 at 72 h [2, 6]: 11 µM

Cc1cc(O)c(=O)c(O)cc1-c1cccc2ccccc12 [Compound 146]
MIC80 [1, 5]: 20 µM (≈ 5.57 µg/mL)
CC50 at 72 h [2, 6]: 20 µM

O=c1cc(Cc2ccc(Br)cc2)c2cccnc2n1O [Compound 149]
MIC [4]: ~10 µM (≈ 3.31 µg/mL)

NCc1cccc(-c2ccc(Cc3cc(=O)n(O)c4ncccc34)cc2)c1 [Compound 153]
MIC [4]: ~4 µM (≈ 1.43 µg/mL)

O=c1cc(-c2ccccc2)c2cccnc2n1O [Compound 154]
MIC [4]: ~20 µM (≈ 4.76 µg/mL)

O=c1c(O)ccccc1O [Compound 172, 7-Hydroxytropolone]
MIC80 [1, 5]: 24 µM (≈ 3.31 µg/mL)
MIC [1, 5]: 24 µM (≈ 3.31 µg/mL)
activity against C. neoformans (in words) [1]: little activity
CC50 at 72 h [2, 6]: 100 µM

Cc1ccc(O)c(=O)c(O)c1 [Compound 210]
MIC80 [1, 5]: 15 µM (≈ 2.28 µg/mL)
MIC [1, 5]: ≤ 15 µM
CC50 at 72 h [2, 6]: 71 µM

O=c1c(O)ccc(-c2ccccc2)cc1O [Compound 262, 2,7-dihydroxy-4-phenylcyclohepta-2,4,6-trien-1-one]
MIC80 [1, 5]: 18 µM (≈ 3.86 µg/mL)
CC50 at 72 h [2, 6]: 96 µM

O=c1c(O)ccc(-c2ccc(-c3ccccc3)cc2)cc1O [Compound 264, 4-([1,1′-biphenyl]-4-yl)-2,7-dihydroxycyclohepta-2,4,6-trien-1-one]
MIC80 [1, 5]: 35 µM (≈ 10.2 µg/mL)
CC50 at 72 h [2, 6]: 28 µM

O=c1c(O)ccc(-c2ccco2)cc1O [Compound 265, 4-(furan-2-yl)-2,7-dihydroxycyclohepta-2,4,6-trien-1-one]
MIC [1, 5]: ≤ 15 µM

COC(=O)c1cc(O)c(=O)c(OC)cc1C [Compound 273]
MIC80 [1, 5]: 50 µM (≈ 11.2 µg/mL)
activity against C. neoformans (in words) [1]: no activity
CC50 at 72 h [2, 6]: 100 µM

COC(=O)c1c2c(cc(O)c(=O)c1O)COC2=O [Compound 280, Methyl 5,7-dihydroxy-3,6-dioxo-3,6-dihydro-1H-cyclohepta[c]furan-4-carboxylate]
MIC80 [1, 5]: 50 µM (≈ 12.6 µg/mL)
CC50 at 72 h [2, 6]: 66 µM

Cc1ccccc1C(=O)Oc1cccccc1=O [Compound 281]
MIC80 [1, 5]: 50 µM (≈ 12 µg/mL)
CC50 at 72 h [2, 6]: 100 µM

O=C(Oc1cccccc1=O)c1ccccc1Cl [Compound 282]
MIC80 [1, 5]: 36 µM (≈ 9.38 µg/mL)
CC50 [3]: 96.5 µM

Cc1cc(O)c(=O)c(O)cc1C(=O)c1cccs1 [Compound 308, 4-(thiopene-2-carbonyl)-2,7-dihydroxy-5-methylcyclohepta-2,4,6-trien-1-one]
MIC80 [1, 5]: 11 µM (≈ 2.89 µg/mL)
CC50 at 72 h [2, 6]: 24 µM

Cc1cc(O)c(=O)c(O)cc1C(=O)c1ccco1 [Compound 309, 4-(furan-2-carbonyl)-2,7-dihydroxy-5-methylcyclohepta-2,4,6-trien-1-one]
MIC80 [1, 5]: 24 µM (≈ 5.91 µg/mL)
CC50 at 72 h [2, 6]: 35 µM

Cc1cc(O)c(=O)c(O)cc1C(=O)C1CC1 [Compound 310, 4-(cyclopropanecarbonyl)-2,7-dihydroxy-5-methylcyclohepta-2,4,6-trien-1-one]
MIC80 [1, 5]: 11 µM (≈ 2.42 µg/mL)
CC50 at 72 h [2, 6]: 35 µM

Cc1cc(O)c(=O)c(O)cc1C(=O)c1ccccc1O [Compound 311, 4-(2-hydroxybenzoyl)-2,7-dihydroxy-5-methylcyclohepta-2,4,6-trien-1-one]
MIC80 [1, 5]: 15 µM (≈ 4.08 µg/mL)
CC50 at 72 h [2, 6]: 20 µM

COc1ccc(C(=O)c2cc(O)c(=O)c(O)cc2C)cc1 [Compound 312, 4-(4-methoxybenzoyl)-2,7-dihydroxy-5-methylcyclohepta-2,4,6-trien-1-one]
MIC80 [1, 5]: 18 µM (≈ 5.15 µg/mL)
CC50 at 72 h [2, 6]: 18 µM

Cc1cc(O)c(=O)c(O)cc1C(=O)c1ccc([N+](=O)[O-])cc1 [Compound 313, 2,7-dihydroxy-4-methyl-5-(4-nitrobenzoyl)cyclohepta-2,4,6-trien-1-one]
MIC80 [1, 5]: 24 µM (≈ 7.23 µg/mL)
CC50 at 72 h [2, 6]: 46 µM

Cc1cc(O)c(=O)c(O)cc1C(=O)c1ccc2ccccc2c1 [Compound 315, 4-(2-naphthoyl)-2,7-dihydroxy-5-methylcyclohepta-2,4,6-trien-1-one]
MIC80 [1, 5]: 24 µM (≈ 7.35 µg/mL)
CC50 at 72 h [2, 6]: 17 µM

COc1cc(C)c(C(=O)c2ccccc2)c(C(=O)c2ccccc2)c(O)c1=O [Compound 317, (7-hydroxy-5-methoxy-3-methyl-6-oxocyclohepta-2,4,7-triene-1,2-diyl) bis (phenyl methanone)]
MIC80 [1, 5]: 50 µM (≈ 18.7 µg/mL)
activity against C. neoformans (in words) [1]: little activity; also recorded: no activity
CC50 at 72 h [2, 6]: > 100 µM

Cc1cc(O)c(=O)c(O)cc1C(=O)O [Compound 319, 4,6-dihydroxy-2-methyl-5-oxocyclohepta-1,3,6-triene-1-carboxylic Acid]
MIC80 [1, 5]: 50 µM (≈ 9.81 µg/mL)
MIC [1, 5]: ≥ 50 µM
CC50 at 72 h [2, 6]: > 100 µM

O=C(Sc1cccccc1=O)c1ccccc1 [Compound 364]
MIC [1, 8]: 0.2 µM (≈ 0.0485 µg/mL)
CC50 at 72 h [2, 9]: 46 µM

Cc1ccc(CSc2cccccc2=O)cc1 [Compound 365]
MIC [1, 8]: > 50 µM
CC50 at 72 h [2, 9]: > 100 µM

Purpurogallin [Compound 195]
MIC80 [1, 7]: 50 µM
activity against C. neoformans (in words) [1]: largely ineffective
CC50 [3]: 92 µM

Reference: patent publication US10980754B2, “Anti-fungal compounds” (SAINT LOUIS UNIVERSITY, priority 2016, dated 2021)
